In assay [1] the test system is Toxoplasma gondii. As to the kind of experiment: MMV: A total of 100ul of inoculum was added to each well (parasite/cell ratio, ~10:1; final volume, 200 ul). Six hours after inoculation, nonadherent parasites were removed, and 100 ul of complete DMEM (1% penicillin-streptomycin, 3% FBS) supplemented with inhibitors at different concentrations (2-fold serial dilutions starting from 30 uM) was added to all except the negative-control wells. Positive controls, consisting of pyrimethamine (PYR) and sulfadiazine (SDZ) (20-mg/ml stocks in DMSO), were tested at a 2mg/ml final concentration. Each test was performed in triplicate. The format is functional, organism-based. To be noted: 6 h.

Assay [2] has as its system Entamoeba histolytica. Description: MMV: Primary screening was performed with each compound at a 30 uM final concentration and in triplicate in sealed 96-well polystyrene microtiter plates. Parasite inocula (100 ul) comprising 20000 parasites/ml were added to each well and grown at 37 degrees C in a humidified atmosphere of 5% CO2 for 72 h. Positive controls consisted of metronidazole at 1 mg/ml. The growth of E. histolytica trophozoites in each well was determined microscopically by measuring the diameters of the confluent cells in drug-containing wells relative to those in the nega- tive-control wells. The format is functional, organism-based.

Consider 67 compounds from ChEMBL document CHEMBL3301448, “MMV Malaria Box screening against Toxoplasma gondii and Entamoeba histolytica”.

In general, IC50 refers to the concentration that gives 50% inhibition. On to `CN1CCN(c2ccc(Nc3c4ccccc4nc4ccccc34)cc2)CC1`, for which the IC50 in assay [1] and in assay [2] was over 30 µM in each case.

With `CN(C)CCCNc1c2ccccc2nc2ccccc12`, the half-inhibitory concentration (IC50) in assay [1] was 25.8 µM; in assay [2], over 30 µM.

As to `COc1ccc(-c2c(C)nn3c(N)c(C#N)cnc23)cc1OC`, the IC50 in assay [1] and in assay [2] was over 30 µM in each case.

For `CSC1=NC(=Nc2c(C)cccc2C)C2(CCC(C(C)(C)C)CC2)N1c1ccc(Cl)cc1` (centres undefined), the IC50 in assay [1] and in assay [2] was over 30 µM in each case.

Regarding `Cc1cc(C)cc(Nc2cc(C)nc3nc(C(F)(F)F)nn23)c1`, the IC50 in assay [1] and in assay [2] was over 30 µM in each case.

Take `O=C(NCC(c1ccsc1)N1CCCCCC1)c1ccc(C(F)(F)F)cc1` (centres undefined): the concentration for half-maximal inhibition (IC50) in assay [1] and in assay [2] was over 30 µM throughout.

Turning to `COc1ccc(-c2cc3c(SCC(=O)Nc4cc(C(F)(F)F)ccc4Cl)nccn3n2)cc1`, the 50% inhibitory concentration (IC50) in assay [1] and in assay [2] was over 30 µM in each case.

As for `Cc1ccc(-c2cc3c(SCC(=O)Nc4cc(C(F)(F)F)ccc4Cl)nccn3n2)cc1`, the half-maximal inhibitory concentration (IC50) in assay [1] and in assay [2] was over 30 µM in each case.

Take `CCN(CC)CCNc1ncnc2c1[nH]c1ccc(Cl)cc12`: the IC50 in assay [1] and in assay [2] was over 30 µM throughout.

Turning to `CCOC(=O)c1cnc2ccc(CC)cc2c1O`, the IC50 in assay [1] and in assay [2] was over 30 µM throughout.

For the compound `CCN(CC)CCNc1ccnc2cc(Cl)ccc12`, the IC50 in assay [1] and in assay [2] was over 30 µM throughout.

Take `CCCCCC(=O)N1c2ccccc2N=C2CC(c3ccc(OC)c(OC)c3)CC(O)=C2C1c1ccc(C(F)(F)F)cc1` (centres undefined): the half-maximal inhibitory concentration (IC50) in assay [1] and in assay [2] was over 30 µM throughout.

Consider `Cc1cc(Nc2ccc3ccccc3c2)n2ncnc2n1`, for which the IC50 in assay [1] and in assay [2] was over 30 µM in each case.

As for `Cc1cc(NCCN2CCCCC2)c2ccc3ccccc3c2n1`, the half-inhibitory concentration (IC50) in assay [1] and in assay [2] was over 30 µM each time.

As for `COc1ccc(-n2ccnc2SCC(=O)Nc2cc(C)ccc2C)c(OC)c1`, the half-inhibitory concentration (IC50) in assay [1] and in assay [2] was over 30 µM throughout.

Consider `CCN1CCN(Cc2ccc(NC(=O)c3cc4ccc5cccnc5c4[nH]3)cc2)CC1`, for which the half-inhibitory concentration (IC50) is 3.85 µM in assay [1] and over 30 µM in assay [2].

As to `COc1ccc(-c2nc(NC(=O)CS(=O)(=O)c3ccc(F)cc3)sc2C)cc1`, the IC50 in assay [1] and in assay [2] was over 30 µM in each case.

Consider `O=C(O)C1Cc2c([nH]c3ccccc23)C(c2ccc(Cl)cc2Cl)N1` (centres undefined), for which the IC50 in assay [1] and in assay [2] was over 30 µM each time.

Consider `Cc1ccc(N2C(=O)C3C(C2=O)C2(c4ccccc4)C(=O)C3(c3ccccc3)C(c3ccccc3)=C2c2ccccc2)cc1` (centres undefined), for which the 50% inhibitory concentration (IC50) in assay [1] and in assay [2] was over 30 µM in each case.

For the compound `CCc1c(C)c(=N)c2ccccc2n1C`, the IC50 in assay [1] and in assay [2] was over 30 µM throughout.

As for `COc1cccc(NC(=O)[C@H](C(C)C)n2c(=O)[nH]c3ccccc3c2=O)c1`, the concentration for half-maximal inhibition (IC50) in assay [1] and in assay [2] was over 30 µM in each case.

As to `CCOC(=O)c1cn(CC)c2cc(N(C)CCc3ccc(OC)c(OC)c3)c(F)cc2c1=O`, the IC50 in assay [1] and in assay [2] was over 30 µM in each case.

With `CCC(c1ccccc1)c1nn2c(-c3cccs3)nnc2s1` (centres undefined), the IC50 in assay [1] and in assay [2] was over 30 µM in each case.

As for `CC(C)(C)c1ccc(O)c(CNC2CCCCC2)c1`, the IC50 in assay [1] and in assay [2] was over 30 µM each time.

For the compound `O=[N+]([O-])c1ccc(C=NNc2nc3ccccc3[nH]2)cc1`, the IC50 in assay [1] and in assay [2] was over 30 µM throughout.

With `CCOc1cc2c(cc1OCC)C(c1cc(OC)c(O)cc1Cl)NCC2` (centres undefined), the IC50 in assay [1] and in assay [2] was over 30 µM in each case.

As for `CC1CN(C(=O)c2sc3ccccc3c2Cl)CC(C)O1` (centres undefined), the IC50 in assay [1] and in assay [2] was over 30 µM throughout.

In the case of `CN(C)c1ccc(C=Cc2nc(=O)c3ccccc3o2)cc1`, the IC50 in assay [1] and in assay [2] was over 30 µM each time.

With `COc1ccc(C2=C(c3ccc(OC)cc3)C3(c4ccccc4)C(=O)C2(c2ccccc2)C2C(=O)N(c4ccc(C)cc4)C(=O)C23)cc1` (centres undefined), the IC50 in assay [1] and in assay [2] was over 30 µM in each case.

`CCOC(=O)c1c(NC(=O)c2ccccc2)sc2c(O)c(CN(CC)CC)ccc12`: the IC50 in assay [1] and in assay [2] was over 30 µM each time.

With `CCOC(=O)C1=C(c2ccccc2)N=c2sc(=Cc3cc(C)n(-c4ccc(F)cc4)c3C)c(=O)n2C1c1cccc(OC)c1OC` (centres undefined), the IC50 in assay [1] and in assay [2] was over 30 µM in each case.

With `CCC1(C)CC(CCNCc2ccccc2O)(c2ccc(C)cc2)CCO1` (centres undefined), the IC50 in assay [1] and in assay [2] was over 30 µM in each case.

With `OC(CNC1CCCCC1)Cn1c2ccccc2c2ccccc21` (centres undefined), the half-inhibitory concentration (IC50) in assay [1] was 8.72 µM; in assay [2], over 30 µM.

As to `Cc1cc(Nc2ccc(C)c(Cl)c2)n2nc(C(F)(F)F)nc2n1`, the IC50 in assay [1] and in assay [2] was over 30 µM each time.

As to `COc1cccc(C=Cc2nc(=O)c3ccccc3o2)c1OC`, the IC50 in assay [1] and in assay [2] was over 30 µM each time.

As to `CCCN(CCC)CC(O)COc1ccccc1C(=O)Nc1ccccc1` (centres undefined), the 50% inhibitory concentration (IC50) in assay [1] and in assay [2] was over 30 µM each time.

Take `Fc1ccc2[nH]c3c(NCCCN4CCOCC4)ncnc3c2c1`: the IC50 in assay [1] and in assay [2] was over 30 µM each time.

On to `COc1ccc(C=C2SC(=N)N(c3ccccc3OC)C2=O)cc1`, for which the IC50 in assay [1] and in assay [2] was over 30 µM each time.

As to `COc1ccc(NC(=O)C2c3ccccc3C(=O)N(CC(C)C)C2c2cccs2)cc1Cl` (centres undefined), the IC50 in assay [1] and in assay [2] was over 30 µM each time.

As to `CCOC(=O)c1c(C)n(-c2ccc(Cl)cc2)c2ccc(OC(=O)C=Cc3ccccc3)cc12`, the IC50 in assay [1] is over 30 µM; in assay [2], 10.7 µM.

On to `C=CC12CCN(CC1)C(C(O)c1ccnc3ccc(OC)cc13)C2` (centres undefined), for which the half-inhibitory concentration (IC50) in assay [1] and in assay [2] was over 30 µM each time.

For the compound `Cc1ccc(-c2cc3nc4c(c(O)n3n2)CCCC4)cc1`, the half-inhibitory concentration (IC50) in assay [1] was 8.22 µM; in assay [2] it was over 30 µM.

In the case of `Cc1cccc(Nc2nc(N)c3ccccc3n2)c1`, the half-maximal inhibitory concentration (IC50) in assay [1] and in assay [2] was over 30 µM in each case.

As for `CCn1c(CN2CCN(Cc3ccccc3)CC2)nc2cc(NC(=O)c3cccs3)ccc21`, the IC50 in assay [1] and in assay [2] was over 30 µM each time.

In the case of `COc1ccccc1CNC(=O)CCn1c(=O)[nH]c2ccccc2c1=O`, the IC50 in assay [1] and in assay [2] was over 30 µM in each case.

As to `Cc1cc(C)c2c(c1)OCN(Cc1ccccc1Cl)C2`, the half-maximal inhibitory concentration (IC50) in assay [1] and in assay [2] was over 30 µM each time.

Regarding `COc1cc(OC)c(N(C)C(=O)c2cc3c(s2)-c2ccccc2S(=O)(=O)C3)cc1Cl`, the 50% inhibitory concentration (IC50) in assay [1] and in assay [2] was over 30 µM in each case.

Consider `COc1ccccc1NC1=C(N2CCCCC2)C(=O)c2ccccc2C1=O`, for which the IC50 was 4.54 µM in assay [1] and over 30 µM in assay [2].

As to `CCCc1cc(O)c2c3c(c(=O)oc2c1)CN(C)CC3`, the IC50 in assay [1] and in assay [2] was over 30 µM in each case.

Consider `Cc1cc(NC(=O)C2c3ccccc3C(=O)N(CC(C)C)C2c2cccs2)no1` (centres undefined), for which the IC50 in assay [1] is 20.9 µM; in assay [2] it was over 30 µM.

For the compound `Oc1ccccc1CNCC12CC3CC(CC(C3)C1)C2`, the IC50 in assay [1] and in assay [2] was over 30 µM each time.

`CNCCCNc1ccnc2cc(Cl)ccc12`: the IC50 in assay [1] and in assay [2] was over 30 µM in each case.

For `COc1ccccc1CNC(=O)CCn1c(=O)[nH]c2ccsc2c1=O`, the figures for the IC50 in assay [1] and in assay [2] were 20.9 µM and over 30 µM, respectively.

Turning to `COc1ccc(Br)cc1C1Nc2ccc3ccccc3c2C2=C1C(=O)CC(c1ccccc1)C2` (centres undefined), the IC50 in assay [1] and in assay [2] was over 30 µM in each case.

Consider `Cc1cc(C=C2SC(=Nc3ccccc3)N(C3CCCC3)C2=O)c(C)n1-c1ccc(Cl)cc1`, for which the IC50 in assay [1] and in assay [2] was over 30 µM each time.

As to `CC1CCN(Cc2ccc(NC(=O)c3cc4ccc5cccnc5c4[nH]3)cc2)CC1`, the concentration for half-maximal inhibition (IC50) in assay [1] and in assay [2] was over 30 µM each time.

Regarding `CCc1ccc(Nc2cc(C)c3ccc(O)cc3n2)cc1`, the IC50 in assay [1] and in assay [2] was over 30 µM throughout.

Consider `COc1ccc2c(=O)cc(C(Cl)(Cl)Cl)oc2c1`, for which the values for the 50% inhibitory concentration (IC50) in assay [1] and in assay [2] were 6.45 µM and over 30 µM, respectively.

Turning to `CSc1ccccc1C(=O)Nc1nc(-c2ccccn2)cs1`, the IC50 in assay [1] and in assay [2] was over 30 µM throughout.

With `COc1ccc(-c2nc3cc(Cc4ccc5[nH]c(-c6ccc(OC)cc6)nc5c4)ccc3[nH]2)cc1`, the IC50 in assay [1] and in assay [2] was over 30 µM throughout.

For the compound `Cc1cc(Nc2ccc(Cl)cc2)n2nc(C(F)(F)F)nc2n1`, the IC50 in assay [1] and in assay [2] was over 30 µM in each case.

As for `COc1ccc(C(C)=O)cc1N1C(=O)C2C(C1=O)C1(c3ccccc3)C(=O)C2(c2ccccc2)C(c2ccc(C)cc2)=C1c1ccc(C)cc1` (centres undefined), the IC50 in assay [1] and in assay [2] was over 30 µM in each case.

Regarding `CCCCCCOC(=O)C1=C(C)NC(=O)NC1c1ccccc1F` (centres undefined), the IC50 in assay [1] and in assay [2] was over 30 µM in each case.

Turning to `Cc1ccc(N2C3c4ccccc4N(S(=O)(=O)c4ccc(C)cc4)C2c2ccccc2N3S(=O)(=O)c2ccc(C)cc2)cc1`, the IC50 in assay [1] and in assay [2] was over 30 µM each time.

With `CCCc1c(CC)c(=N)c2ccccc2n1C`, the IC50 in assay [1] and in assay [2] was over 30 µM in each case.

For the compound `CCOC(=O)c1cnc2c(C)cc(C)cc2c1Nc1ccc(OC)c(OC)c1`, the IC50 in assay [1] and in assay [2] was over 30 µM in each case.

Take `c1ccc(Cn2c(N=Nc3c(Nc4ccccc4)ccc4ccccc34)nc3ccccc32)cc1`: the IC50 in assay [1] was 13.5 µM; in assay [2], over 30 µM.
